Data: patent US20210221848A1, “POLYMYXIN DERIVATIVES AND THEIR USE IN COMBINATION THERAPY TOGETHER WITH DIFFERENT ANTIBIOTICS” (priority 2014, published 2021)
Values after ≈ are worked out from the molar mass of the structure shown. Bridge positions count the residues as written; N and C are the ends. Square brackets hold non-standard residues; d marks the D form. Peptide text beside a SMILES is read from it. * marks the point of attachment. aThr = C[C@H](O)[C@H](N)C(=O)O; X2 = CC(C)CN1CCNC[C@H]1C(=O)*; Dab = NCC[C@H](N)C(=O)O

What was measured:
HK-2 cell line = test: In vitro renal cell toxicity assay (resazurin reduction)
Method: MICs were determined as described herein. HK-2 cell IC50 values were determined as described herein. Values are reported relative to Polymyxin B.

[1] = test system: Pseudomonas aeruginosa ATCC 27853; assay type: in vivo; conditions: ATCC 27853, in vivo, sc, 17.2 mg/kg, 10 h
Method: Groups of 7 male neutropenic specific-pathogen-free CD-1 mice weighing 21.5-27.5 g were used. On Day 0, animals were infected with 0.04 mL inoculum by intranasal instillation into mouse nostrils and were kept in an upright position on a string rack for ˜10 min post-infection. […] At 2 h, the CFU count was determined from 3 mice and the remaining mice (7 per test compound groups) were treated with a subcutaneous injection of the drug at +2, 6 and 10 hr post-infection. Test compounds and the comparator polymyxin B were administered at four concentrations (2.6, 8.6, 17.2 and 25.8 mg/kg free base). The vehicle control group (7 mice) was treated with 0.9% saline for injection at 2, 6 and 10 h post-infection.
Sixteen hours after infection, the mice were euthanized humanely. The lungs of each animal were harvested, homogenized and quantitatively cultured onto CLED agar for CFU determination. Decrease of the total CFU compared to control counts at 16 h post-infection was determined for each dose group.
The in vivo efficacy of 4 compounds of the invention (D25, D36, D42 and D50) was evaluated in a mouse lung infection model of P. aeruginosa ATCC 27853. The model was setup as described above with the exception that groups of up to 8 mice were inoculated through intranasal instillation of ˜2.5×10^6 CFUs of P. aeruginosa isolate ATCC 27853 (1.0×10^5 CFU/lung). Test compounds were administered at two concentrations (equivalent to 4.3 and 17.2 mg/kg free base). Three dose levels of polymyxin B sulfate were used as comparator (equivalent to 4.3, 8.6 and 17.2 mg/kg free base).

CC(C)C[C@@H]1NC(=O)[C@@H](Cc2ccccc2)NC(=O)[C@H](CCN)NC(=O)[C@@H](NC(=O)[C@H](CCN)NC(=O)[C@@H](NC(=O)[C@@H]2CNCCN2CC(C)C)[C@H](C)O)CCNC(=O)[C@H]([C@@H](C)O)NC(=O)[C@H](CCN)NC(=O)[C@H](CCN)NC1=O [Example D36, (S)-1-(2-methylpropyl)-piperazine-2-carbonyl polymyxin B nonapeptide] (X2-[aThr][Dab][Dab][Dab][dF]L[Dab][Dab]T; lactam 3-C)
HK-2 IC50 rel to PMB (HK-2 cell line): 4.5 | MIC (K. pneumoniae): 0.25 µg/mL (≈ 0.221 µM) | Mean log10 CFU reduction vs. control [1]: 5.30 log10 CFU
